According to PubChem BioAssay (NCI):
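Growth conditions: 96-well plates. Treatment: test compound, 48 hours, 5 concentrations. Analysis: linear interpolation between bracketing concentrations; unreached endpoints set to highest concentration. TGI is the concentration that stops growth completely.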

Tests used:
Assay in all cases: DTP human tumour cell line panel, 48 h
[1] = system: RPMI-8226 leukemia
[2] = system: SK-MEL-5 melanoma
[3] = system: MOLT-4 leukemia
[4] = system: EKVX NSCLC
[5] = system: RXF 393 renal
[6] = system: MCF7 breast
[7] = system: HCC-2998 colon
[8] = system: A549 NSCLC
[9] = system: UO-31 renal
[10] = system: A498 renal
[11] = system: HT29 colon
[12] = system: KM12 colon
[13] = system: K-562 leukemia
[14] = system: SK-MEL-2 melanoma
[15] = system: SF-268 CNS
[16] = system: SN12C renal
[17] = system: LOX IMVI melanoma
[18] = system: SNB-19 CNS
[19] = system: UACC-257 melanoma
[20] = system: MDA-MB-231 breast

Row | Structure (SMILES) | TGI [1] [µM] | TGI [2] [µM] | TGI [3] [µM] | TGI [4] [µM] | TGI [5] [µM] | TGI [6] [µM] | TGI [7] [µM] | TGI [8] [µM] | TGI [9] [µM] | TGI [10] [µM] | TGI [11] [µM] | TGI [12] [µM] | TGI [13] [µM] | TGI [14] [µM] | TGI [15] [µM] | TGI [16] [µM] | TGI [17] [µM] | TGI [18] [µM] | TGI [19] [µM] | TGI [20] [µM]
1 | CCC1=CC2CN3CCc4c([nH]c5ccccc45)C(C(=O)OC)(C2)C13 (stereo not given) | 137 | 79.4 | 181 | 78.2 | 78.7 | 95.4 | > 92.6 | 82.5 | 71.4 | 108 | 60.4 | 41.8 | 202 | 114 | 101 | 89.3 | 121 | 68.4 | 104 | 
2 | Cc1cc(C)nc(NS(=O)(=O)c2ccc(Nc3c4ccccc4nc4c(C(=O)NCCCN(CCO)CCO)cccc34)cc2)n1 | 79.6 | 34.8 | > 100 | > 100 |  | > 100 | 33.6 | > 100 | > 100 | > 100 | > 100 | 30.7 | > 100 | 34.8 | > 100 | > 100 | 46.1 | > 100 | > 100 | 88.6
3 | CN1C2CC(=O)CC1[C@H](O)[C@@H]2O | > 100 |  | > 100 | > 100 | > 100 | > 100 | > 100 |  | > 100 |  | > 100 | > 100 | > 100 | > 100 | > 100 | > 100 | > 100 | > 100 | > 100 | > 100
4 | CC1(C23CC4CC(CC(C4)C2)C3)n2c(=O)n(-c3ccccc3)c(=O)n2C1(C)C12CC3CC(CC(C3)C1)C2 (stereo not given) | > 100 | > 100 | > 100 | > 100 |  | > 100 |  | > 100 | > 100 | > 100 | > 100 | > 100 | > 100 | > 100 | > 100 | > 100 |  | > 100 | > 100 | > 100
5 | Cc1[nH]c(=O)nc(N/N=C/c2ccc(Cl)cc2)c1C(=O)NC(C)(CO)CO | > 100 | > 100 | > 100 | > 100 | > 100 | > 100 | > 100 |  | > 100 | > 100 | > 100 | > 100 | > 100 | > 100 | > 100 | > 100 | > 100 | > 100 | > 100 | 
